Where a name gives a salt, the structure may show the parent alone.
What follows are compounds tested against HSD17B13 (Homo sapiens (Human), UniProt Q7Z5P4) (assay: LC/MS estrone detection assay: conversion of estradiol to estrone by HSD17B13). Settings: 4 μM estradiol, 6 mM NAD+, 30 nM HSD17B13 enzyme (E. coli expressed His-tagged), 2 hours at 26.5° C.
Type: biochemical
Procedure, shortened: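 His-tagged E. coli-expressed HSD17B13 (30 nM) with 4 μM estradiol and 6 mM NAD+ in 1 M potassium phosphate pH 7.4, 0.5% DMSO, 2 h at 26.5° C. Estrone and estradiol quantified by LC-MS/MS after MeCN quench with D4-estrone internal standard; activity as % of uninhibited enzyme, IC50 by four-parameter fit, duplicates.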

HSD17B13, sequence (Q7Z5P4 20-300): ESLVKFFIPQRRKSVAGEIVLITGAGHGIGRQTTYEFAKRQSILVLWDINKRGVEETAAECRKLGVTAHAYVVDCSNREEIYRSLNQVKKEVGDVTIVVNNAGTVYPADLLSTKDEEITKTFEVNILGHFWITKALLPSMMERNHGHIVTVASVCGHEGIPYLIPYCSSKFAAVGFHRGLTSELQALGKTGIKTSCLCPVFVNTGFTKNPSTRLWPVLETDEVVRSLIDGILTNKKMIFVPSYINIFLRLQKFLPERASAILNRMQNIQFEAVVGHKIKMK

Row | IC50 [nM] | SMILES
1 | 1000 to 10000 | O=C(Nc1cccc2ncn(Cc3ccncc3)c(=O)c12)c1cc(Cl)c(O)c(Cl)c1 [Example 17, 3,5-dichloro-4-hydroxy-N-(4-oxo-3-(pyridin-4-ylmethyl)-3,4-dihydroquinazolin-5-yl)benzamide]
2 | ≤ 100 | Cc1nc2c(F)ccc(NC(=O)c3cc(Cl)c(O)c(Cl)n3)c2c(=O)n1Cc1ccccc1OC(F)(F)F [Example 150, 4,6-dichloro-N-(8-fluoro-2-methyl-4-oxo-3-(2-(trifluoromethoxy)benzyl)-3,4-dihydroquinazolin-5-yl)-5-hydroxypicolinamide]
3 | ≤ 100 | O=C(Nc1cccc2ncn(C3(c4ccccc4F)CC3)c(=O)c12)c1cc(Cl)c(O)c(Cl)c1 [Example 21, 3,5-dichloro-N-(3-(1-(2-fluorophenyl)cyclopropyl)-4-oxo-3,4-dihydroquinazolin-5-yl)-4-hydroxybenzamide]
4 | ≤ 100 | O=C(Nc1scnc1C(=O)NCc1ccccc1OC(F)(F)F)c1cc(Cl)c(O)c(Cl)n1 [Example 191, 5-(4,6-dichloro-5-hydroxypicolinamido)-N-(2-(trifluoromethoxy)benzyl) thiazole-4-carboxamide]
5 | 100 to 500 | O=C(Nc1csc2ncn(Cc3ccccc3)c(=O)c12)c1cc(Cl)c(O)c(Cl)n1 [Example 98, N-(3-benzyl-4-oxo-3,4-dihydrothieno[2,3-d]pyrimidin-5-yl)-4,6-dichloro-5-hydroxypicolinamide]
6 | 100 to 500 | Cc1nc2c(F)ccc(NC(=O)c3cc(Cl)c(O)c(Cl)n3)c2c(=O)n1Cc1ncccc1C(F)(F)F [Example 155, 4,6-dichloro-N-(8-fluoro-2-methyl-4-oxo-3-((3-(trifluoromethyl)pyridin-2-yl)methyl)-3,4-dihydroquinazolin-5-yl)-5-hydroxypicolinamide]
7 | 100 to 500 | O=C(Nc1cccc2ncn([C@@H]3CC[C@H]3c3ccccc3)c(=O)c12)c1cc(Cl)c(O)c(Cl)n1 (racemic) [Example 175, rac-4,6-dichloro-5-hydroxy-N-(4-oxo-3-((1R,2S)-2-phenylcyclobutyl)-3,4-dihydroquinazolin-5-yl)picolinamide]
8 | ≤ 100 | O=C(Nc1cccc2ncn(Cc3ccn(-c4ccccc4F)n3)c(=O)c12)c1cc(Cl)c(O)c(Cl)c1 [Example 76, 3,5-dichloro-N-(3-((1-(2-fluorophenyl)-1H-pyrazol-3-yl)methyl)-4-oxo-3,4-dihydroquinazolin-5-yl)-4-hydroxybenzamide]
9 | 500 to 1000 | CS(=O)(=O)c1cccc(Cn2cnc3cccc(NC(=O)c4cc(Cl)c(O)c(Cl)c4)c3c2=O)c1 [Example 60, 3,5-dichloro-4-hydroxy-N-(3-(3-(methylsulfonyl)benzyl)-4-oxo-3,4-dihydroquinazolin-5-yl)benzamide.]
10 | 1000 to 10000 | O=C(Nc1cccc2ncnc(NCc3ccccc3OC(F)F)c12)c1cc(Cl)c(O)c(Cl)c1 [Example 54, 3,5-dichloro-N-[4-({[2-(difluoromethoxy)phenyl]methyl}amino)quinazolin-5-yl]-4-hydroxybenzamide]
11 | 500 to 1000 | Cc1ccc(NC(=O)c2cc(Cl)c(O)c(Cl)c2)c2c(=O)n(Cc3ccccc3OC(F)(F)F)c(CF)nc12 [Example 152, 3,5-dichloro-N-(2-(fluoromethyl)-8-methyl-4-oxo-3-(2-(trifluoromethoxy)benzyl)-3,4-dihydroquinazolin-5-yl)-4-hydroxybenzamide]
12 | 100 to 500 | Cc1ccc(NC(=O)c2cc(Cl)c(O)c(Cl)n2)c2c(=O)n(Cc3ccccc3OC(F)(F)F)cnc12 [Example 91, 4,6-dichloro-5-hydroxy-N-(8-methyl-4-oxo-3-(2-(trifluoromethoxy)benzyl)-3,4-dihydroquinazolin-5-yl)picolinamide]
13 | > 10000 | O=C(N[C@H]1CCCC[C@@H]1C(=O)NCc1ccccc1OC(F)(F)F)c1cc(Cl)c(O)c(Cl)n1 [Example 144, 4,6-dichloro-5-hydroxy-N-((1S, 2S)-2-((2-(trifluoromethoxy)benzyl)carbamoyl)cyclohexyl)picolinamide]
14 | ≤ 100 | Cc1ccc(NC(=O)c2cc(Cl)c(O)c(Cl)c2)c2c(=O)n(Cc3ccccc3C(F)(F)F)c(C)nc12 [Example 151, 3,5-dichloro-N-(2,8-dimethyl-4-oxo-3-(2-(trifluoromethyl)benzyl)-3,4-dihydroquinazolin-5-yl)-4-hydroxybenzamide]
15 | 100 to 500 | O=C(Nc1cccc2ncn([C@H]3CC[C@@H]3c3ccccc3)c(=O)c12)c1cc(Cl)c(O)c(Cl)c1 [Example 121, 3,5-dichloro-4-hydroxy-N-(4-oxo-3-((1S,2R)-2-phenylcyclobutyl)-3,4-dihydroquinazolin-5-yl)benzamide]
16 | 1000 to 10000 | O=C(Nc1cccc2ncn(Cc3ccccc3N3CCS(=O)(=O)CC3)c(=O)c12)c1cc(Cl)c(O)c(Cl)c1 [Example 83, 3,5-dichloro-N-(3-(2-(1,1-dioxidothiomorpholino)benzyl)-4-oxo-3,4-dihydroquinazolin-5-yl)-4-hydroxybenzamide]

Row | IC50 [nM] | SMILES
17 | 100 to 500 | O=C(Nc1cccc2ncn(Cc3cccc(C(F)(F)F)c3)c(=O)c12)c1cc(Cl)c(O)c(Cl)n1 [Example 40, 4,6-dichloro-5-hydroxy-N-(4-oxo-3-(3-(trifluoromethyl)benzyl)-3,4-dihydroquinazolin-5-yl)picolinamide]
18 | ≤ 100 | Cc1ccc(NC(=O)c2cc(Cl)c(O)c(Cl)c2)c2c(=O)n(Cc3ncccc3C(F)(F)F)c(C)nc12 [Example 146, 3,5-dichloro-N-(2,8-dimethyl-4-oxo-3-((3-(trifluoromethyl)pyridin-2-yl)methyl)-3,4-dihydroquinazolin-5-yl)-4-hydroxybenzamide]
19 | 100 to 500 | N#Cc1cccc(Cn2cnc3cccc(NC(=O)c4cc(Cl)c(O)c(Cl)c4)c3c2=O)c1 [Example 48, 3,5-dichloro-N-(3-(3-cyanobenzyl)-4-oxo-3,4-dihydroquinazolin-5-yl)-4-hydroxybenzamide]
20 | ≤ 100 | O=C(Nc1cccc2ncn(Cc3cccc(C(F)(F)F)c3)c(=O)c12)c1cc(Cl)c(O)c(Cl)c1 [Example 11, 3,5-dichloro-4-hydroxy-N-(4-oxo-3-(3-(trifluoromethyl)benzyl)-3,4-dihydroquinazolin-5-yl)benzamide]
21 | 100 to 500 | Cc1nc2c(F)ccc(NC(=O)c3cc(Cl)c(O)c(Cl)n3)c2c(=O)n1Cc1ccccc1C(F)(F)F [Example 159, 4,6-dichloro-N-(8-fluoro-2-methyl-4-oxo-3-(2-(trifluoromethyl)benzyl)-3,4-dihydroquinazolin-5-yl)-5-hydroxypicolinamide]
22 | ≤ 100 | Cc1nc2c(Cl)ccc(NC(=O)c3cc(Cl)c(O)c(Cl)c3)c2c(=O)n1Cc1ccccc1C(F)(F)F [Example 156, 3,5-dichloro-N-(8-chloro-2-methyl-4-oxo-3-(2-(trifluoromethyl)benzyl)-3,4-dihydroquinazolin-5-yl)-4-hydroxybenzamide]
23 | 100 to 500 | O=C(Nc1cccc2ncn(Cc3ccc(N4CCS(=O)(=O)CC4)cc3)c(=O)c12)c1cc(Cl)c(O)c(Cl)c1 [Example 63, 3,5-dichloro-N-(3-(4-(1,1-dioxidothiomorpholino)benzyl)-4-oxo-3,4-dihydroquinazolin-5-yl)-4-hydroxybenzamide]
24 | 100 to 500 | Cc1ccc(NC(=O)c2cc(Cl)c(O)c(Cl)n2)c2c(=O)n(Cc3ccccc3C(F)(F)F)c(C(F)F)nc12 [Example 181, 4,6-dichloro-N-(2-(difluoromethyl)-8-methyl-4-oxo-3-(2-(trifluoromethyl)benzyl)-3,4-dihydroquinazolin-5-yl)-5-hydroxypicolinamide]
25 | 100 to 500 | [2H]C([2H])(c1ccccc1C(F)(F)F)n1c(C)nc2c(C)ccc(NC(=O)c3cc(Cl)c(O)c(Cl)n3)c2c1=O [Example 201, 4,6-dichloro-N-(2,8-dimethyl-4-oxo-3-{[2-(trifluoromethyl)phenyl](^2H2)methyl}-3,4-dihydroquinazolin-5-yl)-5-hydroxypyridine-2-carboxamide]
26 | 100 to 500 | Cn1c(=O)n(Cc2ccccc2OC(F)(F)F)c(=O)c2c(NC(=O)c3cc(Cl)c(O)c(Cl)n3)cccc21 [Example 113, 4,6-dichloro-5-hydroxy-N-(1-methyl-2,4-dioxo-3-(2-(trifluoromethoxy)benzyl)-1,2,3,4-tetrahydroquinazolin-5-yl)picolinamide]
27 | 100 to 500 | O=C(Nc1csc2ncn(Cc3ccccc3OC(F)(F)F)c(=O)c12)c1cc(Cl)c(O)c(Cl)n1 [Example 104, 4,6-dichloro-5-hydroxy-N-(4-oxo-3-(2-(trifluoromethoxy)benzyl)-3,4-dihydrothieno[2,3-d]pyrimidin-5-yl)picolinamide]
28 | 500 to 1000 | O=C(Nc1cccc2ncn([C@@H]3C[C@H]3c3ccccc3)c(=O)c12)c1cc(Cl)c(O)c(Cl)n1 [Example 108, 4,6-dichloro-5-hydroxy-N-(4-oxo-3-((1R,2S)-2-phenylcyclopropyl)-3,4-dihydroquinazolin-5-yl)picolinamide TFA Salt]
29 | 100 to 500 | O=C(Nc1ncsc1C(=O)NCCc1ccccc1C(F)(F)F)c1cc(Cl)c(O)c(Cl)c1 [Example 25, 4-(3,5-dichloro-4-hydroxybenzamido)-N-(2-(trifluoromethyl)phenethyl) thiazole-5-carboxamide]
30 | 500 to 1000 | O=C(Nc1cccc2ncn(Cc3ccncc3F)c(=O)c12)c1cc(Cl)c(O)c(Cl)c1 [Example 13, 3,5-dichloro-N-(3-((3-fluoropyridin-4-yl)methyl)-4-oxo-3,4-dihydroquinazolin-5-yl)-4-hydroxybenzamide]
31 | ≤ 100 | O=C(Nc1cccc2ncn(Cc3ccccc3F)c(=O)c12)c1cc(Cl)c(O)c(Cl)n1 [Example 44, 4,6-dichloro-N-(3-(2-fluorobenzyl)-4-oxo-3,4-dihydroquinazolin-5-yl)-5-hydroxypicolinamide]

Row | SMILES | IC50 [nM]
32 | O=C(Nc1ncsc1C(=O)NCc1ccccc1F)c1cc(Cl)c(O)c(Cl)c1 [Example 24, 4-(3,5-dichloro-4-hydroxybenzamido)-N-(2-fluorobenzyl)thiazole-5-carboxamide] | 1000 to 10000

Source: patent US20230278981A1, “DICHLOROPHENOL HSD17B13 INHIBITORS AND USES THEREOF” (INIPHARM, INC., priority 2020, published 2023)
